Experiments:
Type in all cases: in vivo, Sprague-Dawley rats
[1] = system: DNBS-induced colitis model; assay: Change in body weight and spleen weight in DNBS-induced colitis model; conditions: DNBS rats; for change in body weights: 3, 10 and 30 mg/kg oral immediately after DNBS, 6 days; for spleen weights compared to DNBS-induced colitis model: test compound groups (3, 10, 30 mg/kg) oral
Description: Sprague-Dawley rats (body weights of 200 to 225 g) which were male albino rats were used as model animals. Three model animals were housed in one cage in a temperature-controlled environment at 22-24° C., 50-60% humidity, and a light cycle of 12 hours, were given ad libitum access to standard laboratory feed and tap water, and were not used for at least one week after being brought into the laboratory.
A model in which colitis was induced by 2,4-dinitrobenzenesulfonic acid (hereinafter, denoted as DNBS, manufactured by Sigma-Aldrich, Inc.) (in the present specification, referred to as a “DNBS-induced colitis model”) was prepared.
(§1) The induction of colitis was performed according to the method in Antonioli L, et al. (Non Patent Literature 8). 15 mg of 2,4-dinitrobenzenesulfonic acid (DNBS) in 0.25 ml of 50% ethanol was rectally administered through a polyethylene PE-60 catheter inserted 8 cm proximal to the anus, during a short period of anesthesia by Isoflurane (manufactured by Abbott Laboratories). To the control rat, 0.25 ml of 50% ethanol was administered.
Food intake was monitored everyday since initiation of the drug therapy. Furthermore, body weights of the rats were measured every morning, and evidence of blood in diarrhea and a stool or rectal bleeding was examined during the experimental period.

[2] = system: DNBS-induced colitis model; assay: Macroscopic damage score of colonic tissue in DNBS-induced colitis model; conditions: DNBS rats, 6 days
Description: as §1
(§2) The DNBS-induced colitis model and the control rats were euthanized in a CO2 chamber. After death, mid-abdominal incision was performed, and the colon was excised, which was then opened in a longitudinal direction (longitudinal muscle direction), washed with sterile physiological saline, and split into two parts in the longitudinal direction.
Evaluation was performed by scoring the macroscopic damage of the samples. As described above, colonic tissues that had been excised and washed with physiological saline were used as the samples.
The scoring was performed according to the criteria determined by making a minor amendment on the criteria reported in Non Patent Literature 11 (Non Patent Literature 12). […]
(4) Thickness (mm) of colonic tissue (colonic wall): 1 point was scored for 1 mm […]

[3] = system: DNBS-induced colitis model; assay: Microscopic (histological) damage score of colonic tissue in DNBS-induced colitis model; conditions: DNBS rats, 6 days; for histological damage in colonic tissues compared to DNBS-induced colitis model: test compound groups (3, 10, 30 mg/kg) oral
Description: as §1, §2
Evaluation of microscopic damage and inflammation was performed with an optical microscope using a tissue section obtained from a specimen of the entire intestine and stained with hematoxylin/eosin. Evaluation of severity of enteritis was performed by scoring the microscopic damage (histological damage) of the samples. As described above, colonic tissues that had been excised and washed with physiological saline were used as the samples.
The scoring was performed according to the criteria determined by making a minor amendment on the criteria reported in Non Patent Literature 11 (Non Patent Literature 12). The microscopic scoring (scoring of histological damage) criteria for the colonic damage are as shown in the following (1) to (5) (Non Patent Literatures 8 to 10), and the total points in (1) to (5) are used as a score.
(1) Loss of mucosal structure (no loss of mucosal structure: 0 points and mild to severe loss of mucosal structure: 1 to 3 points)
(2) Cellular infiltration (no cellular infiltration: 0 points and mild to severe cellular infiltration: 1 to 3 points)
(3) Muscle thickening (no muscle thickening: 0 points and mild to severe muscle thickening: 1 to 3 points) (4) Crypt abscess (none: 0 points and present: 1 point)
(5) Reduction in goblet cells (not reduced: 0 points and reduced: 1 point) […]

occludin = assay: Occludin expression in colonic tissue (western blotting), DNBS-induced colitis model; conditions: DNBS rats; 10 mg/kg oral
caspase-1 = assay: Caspase-1 expression in colonic tissue (western blotting), DNBS-induced colitis model; conditions: DNBS rats; 10 mg/kg oral
Description: as §1
Sample preparation and a test method were performed by the same methods as those in Example 7.
Samples were prepared and a test was performed in the same manner as in Example 7, except that an anti-procaspase-1 antibody and an anti-caspase antibody (all ad1872, manufactured by Abcam plc., dilution 1: 1,000) were used as the antibodies, instead of the anti-occludin antibody.
Sample preparation and a test method were performed by the same methods as those in Example 8.

Q: For `O=C1CC(=O)N(c2cccc(-c3noc(=S)[nH]3)c2)c2ccc3ccccc3c2N1.[Na]` [Compound A17, 5-[3-(5-thioxo-4H-[1,2,4]oxadiazol-3-yl)phenyl]-1H-naphtho[1,2-b][1,4]diazepine-2,4(3H,5H)-dione sodium salt], which “change in body weights” value [1] is on record?
A: increase in body weights

Q: What about the “spleen weights compared to DNBS-induced colitis model” value [1] of the same molecule?
A: significantly decreased

Q: What about the “macroscopic damage scores compared to DNBS-induced colitis model” value ([2]; 10 and 30 mg/kg oral) of the same molecule?
A: significant decrease

Q: What about the “histological damage in colonic tissues compared to DNBS-induced colitis model” value [3] of the same molecule?
A: not affected

Q: And the “occludin expression in inflamed tissues compared to DNBS-induced colitis model” value (occludin)?
A: increased

Q: And the “caspase-1 expression in colon in which inflammation was induced” value (caspase-1)?
A: cannot be decreased

Q: Which “change in body weights” value [1] does the source give for `O=C1CC(=O)N(c2ccc(NC(=O)c3ccccc3I)cc2)c2ccc3ccccc3c2N1` [Compound B48, 5-[4-(2-iodobenzoylamino)phenyl]-1H-naphtho[1,2-b][1,4]diazepine-2,4(3H,5H)-dione] here?
A: increase in body weights

Q: And the “spleen weights compared to DNBS-induced colitis model” value [1]?
A: significantly decreased

Q: What about the “macroscopic damage scores compared to DNBS-induced colitis model” value ([2]; 3, 10 and 30 mg/kg oral) of the same molecule?
A: significant decrease

Q: What about the “microscopic score compared to DNBS-induced colitis model” value ([3]; 10 and 30 mg/kg oral) of the same molecule?
A: significant improvement

Q: And the “histological damage in colonic tissues compared to DNBS-induced colitis model” value [3]?
A: decreased in a dose-dependent manner

Q: And the “occludin expression in inflamed tissues compared to DNBS-induced colitis model” value (occludin)?
A: increased

Q: What about the “caspase-1 expression in colon in which inflammation was induced” value (caspase-1) of the same molecule?
A: decreased
